In data set [1] the test system is acetic acid-induced writhing. The data set can be described thus: In vivo analgesic assay, acetic acid-induced writhing method. More on the design: species or system Wistar rats. Conditions: for potency: % inhibition of tested compound / % inhibition of reference (celecoxib); for % inhibition (number of writhing) / no. of writhes (mean ± SE): acetic acid-induced writhing.

In data set [2] the test system is carrageenan induced rat paw edema. The data set can be described thus: In vivo anti-inflammatory assay, carrageenan-induced paw edema. Conditions: 2 mg/kg oral; for % of edema inhibition 1 h: 1 h after carrageenan injection; for % of edema inhibition 3 h: 3 h after carrageenan injection; for % of edema inhibition 5 h: 5 h after carrageenan injection. Background: Carrageenan injected into the paw causes an acute inflammation.

The test system of the next data set is rat stomach. Put plainly: Gastric ulcerogenic activity. The class given is in vivo. Conditions: oral 10 mg/kg.
Data set [3] has as its system serum levels of LDH, Tn-I, TNF-α and CK-MB. Put plainly: Evaluation of cardiovascular parameters. The class given is in vivo, rats. Conditions: rat serum, 100 mg/kg oral, 2 weeks.
The target in the next data set is T1, COX-2 (Homo sapiens, UniProt P35354).
T1 sequence (P35354 18-604): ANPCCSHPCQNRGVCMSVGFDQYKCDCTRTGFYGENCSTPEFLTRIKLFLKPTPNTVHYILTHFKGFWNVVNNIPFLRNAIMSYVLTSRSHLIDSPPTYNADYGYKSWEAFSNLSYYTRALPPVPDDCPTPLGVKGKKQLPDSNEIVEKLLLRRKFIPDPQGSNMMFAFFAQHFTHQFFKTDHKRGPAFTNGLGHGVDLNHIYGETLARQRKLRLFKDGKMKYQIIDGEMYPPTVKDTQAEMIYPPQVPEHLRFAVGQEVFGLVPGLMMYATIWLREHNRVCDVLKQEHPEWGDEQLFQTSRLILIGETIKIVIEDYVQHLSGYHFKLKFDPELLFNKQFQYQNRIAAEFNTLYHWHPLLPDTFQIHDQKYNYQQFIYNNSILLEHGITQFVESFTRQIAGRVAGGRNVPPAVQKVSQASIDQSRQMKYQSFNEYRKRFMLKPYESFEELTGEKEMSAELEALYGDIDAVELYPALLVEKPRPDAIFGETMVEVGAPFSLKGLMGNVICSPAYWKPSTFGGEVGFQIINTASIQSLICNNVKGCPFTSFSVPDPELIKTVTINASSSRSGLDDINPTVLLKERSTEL
Put plainly: biochemical. The class given is biochemical. Conditions: for SI (selectivity index): IC50 (COX-1)/IC50 (COX-2); for fold less potent than compound 8o against COX-2: ratio of COX-2 IC50 values.

The next data set addresses T2, sEH (Homo sapiens, UniProt P34913).
T2 sequence (P34913 1-555): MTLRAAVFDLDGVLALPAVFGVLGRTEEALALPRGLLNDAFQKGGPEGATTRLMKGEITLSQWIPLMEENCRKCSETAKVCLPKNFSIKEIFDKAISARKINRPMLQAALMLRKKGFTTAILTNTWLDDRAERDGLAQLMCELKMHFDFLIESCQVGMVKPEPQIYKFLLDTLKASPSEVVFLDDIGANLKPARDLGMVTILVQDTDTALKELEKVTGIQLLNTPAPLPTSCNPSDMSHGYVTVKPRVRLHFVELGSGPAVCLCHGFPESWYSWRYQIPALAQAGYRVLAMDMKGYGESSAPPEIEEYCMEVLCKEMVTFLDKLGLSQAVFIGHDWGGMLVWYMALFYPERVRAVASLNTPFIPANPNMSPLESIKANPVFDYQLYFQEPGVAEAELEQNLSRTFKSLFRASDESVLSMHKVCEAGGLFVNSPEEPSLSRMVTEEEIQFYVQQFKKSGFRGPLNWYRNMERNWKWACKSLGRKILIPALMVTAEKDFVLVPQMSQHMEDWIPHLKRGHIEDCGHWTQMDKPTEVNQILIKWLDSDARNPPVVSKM
The data set can be described thus: In vitro sEH inhibition assay. In kind it is biochemical. Conditions: sEH (IC50, nM).

The next data set deals with 5-LOX. Conditions: read-out: 5-LOX (IC50).
For data set [4] the following is noted: cited from earlier work.

Molecules are shown by their SMILES. Where “and” joins values, the source holds several entries; their conditions need not be identical. Equal entries are not always repeated.

For orientation: IC50 means the midpoint of a concentration-inhibition curve.

`Cc1ccc(-c2cc(C(F)(F)F)nn2-c2ccc(S(N)(=O)=O)cc2)cc1` [Celecoxib, reference compound]: in data set [1], the potency is listed as 1.00, the “% inhibition (number of writhing)” value was 13.5% and the “no. of writhes (mean ± SE)” value is on record as 29.00 ± 0.70. In addition, the “% inhibition (number of writhing)” value in data set [1] (listed as celecoxib) is 13.50%. Besides, in data set [2], the “% of edema inhibition 1 h” value came out at 40%, the “% of edema inhibition 3 h” value stood at 54% and the “% of edema inhibition 5 h” value is given as 22%. In the data set on rat stomach, the “score: no. of gastric ulcers” value stood at 2.5 ± 0.10 and the “score: severity lesions” value is on record as 5.80 ± 0.20. In data set [3], the “CK-MB (IU/L)” value worked out at 96 ± 04 IU/L, the “LDH (IU/L)” value came out at 2100 ± 90 IU/L and the “troponin-I” value is 340 ± 10 pg/mL.

For `N#CC1=C(N)n2c(nnc2-c2ccccc2)NC1c1ccccc1` (centres unmarked) [Compound 8a, 5-Amino-7,8-dihydro-3,7-diphenyl-[1,2,4]triazolo[4,3-a]pyrimidine-6-carbonitrile], at COX-2, 21.7 µM corresponded to half-maximal inhibition (IC50) and the “SI (selectivity index)” value is 10.

As to `Cc1ccc(C2Nc3nnc(-c4ccccc4)n3C(N)=C2C#N)cc1` (centres unmarked) [Compound 8d, 5-Amino-7,8-dihydro-3-phenyl-7-p-tolyl-[1,2,4]triazolo[4,3-a]pyrimidine-6-carbonitrile], at COX-2, the IC50 came out at 46.9 µM and the “SI (selectivity index)” value is recorded as 6.

As to `COc1ccc(C2Nc3nnc(-c4ccccc4)n3C(N)=C2C#N)cc1` (centres unmarked) [Compound 8e, 5-Amino-7,8-dihydro-7-(4-methoxyphenyl)-3-phenyl-[1,2,4]triazolo[4,3-a]pyrimidine-6-carbonitrile], at COX-2, the half-maximal inhibitory concentration (IC50) amounted to 29.7 µM, the “SI (selectivity index)” value is on record as 8 and the “fold less potent than compound 8o against COX-2” value is 2.8 fold.

For `N#CC1=C(N)n2c(nnc2-c2ccncc2)NC1c1ccccc1` (centres unmarked) [Compound 8f, 5-Amino-7,8-dihydro-7-phenyl-3-(pyridin-4-yl)-[1,2,4]triazolo[4,3-a]pyrimidine-6-carbonitrile], at COX-2, the IC50 is 51.5 µM and the “SI (selectivity index)” value is given as 6.

As to `COc1ccc(C2Nc3nnc(-c4ccncc4)n3C(N)=C2C#N)cc1` (centres unmarked) [Compound 8j, 5-Amino-7,8-dihydro-7-(4-methoxyphenyl)-3-(pyridin-4-yl)-[1,2,4]-triazolo[4,3-a]pyrimidine-6-carbonitrile], on COX-2, the half-inhibitory concentration (IC50) turned out to be 42.7 µM, the “SI (selectivity index)” value is on record as 7 and the “fold less potent than compound 8o against COX-2” value is listed as 4 fold.

In the case of `N#CC1=C(N)n2c(nnc2-c2cccnc2)NC1c1ccccc1` (centres unmarked) [Compound 8k, 5-Amino-7,8-dihydro-7-phenyl-3-(pyridin-3-yl)-[1,2,4]triazolo[4,3-a]pyrimidine-6-carbonitrile], on COX-2, the IC50 was 37.5 µM, the “SI (selectivity index)” value was determined as 8 and the “fold less potent than compound 8o against COX-2” value came to 3.5 fold.

For the compound `N#CC1=C(N)n2c(nnc2-c2cccnc2)NC1c1ccc(Br)cc1` (centres unmarked) [Compound 8l, 5-Amino-7-(4-bromophenyl)-7,8-dihydro-3-(pyridin-3-yl)-[1,2,4]triazolo [4,3-a]pyrimidine-6-carbonitrile], at COX-2, the half-inhibitory concentration (IC50) came out at 53.7 µM and the “SI (selectivity index)” value was 4.

In the case of `N#CC1=C(N)n2c(nnc2-c2cccnc2)NC1c1ccc(Cl)cc1` (centres unmarked) [Compound 8m, 5-Amino-7-(4-chlorophenyl)-7,8-dihydro-3-(pyridin-3-yl)-[1,2,4]triazolo [4,3-a]pyrimidine-6-carbonitrile], in data set [1], the potency was 3, the “% inhibition (number of writhing)” value is on record as 41% and the “no. of writhes (mean ± SE)” value stood at 19.00 ± 0.60. For the same compound, in data set [2], the “% of edema inhibition 1 h” value is on record as 32%, the “% of edema inhibition 3 h” value was 59% and the “% of edema inhibition 5 h” value turned out to be 70%. Moreover, at COX-2, the midpoint of inhibition, the IC50, lay at 11.6 µM and the “SI (selectivity index)” value is given as 20. In addition, the half-inhibitory concentration (IC50) against sEH is 2.95 ± 0.08 nM. Further, the IC50 in the data set with 5-LOX was 2.9 µM and 3.05 µM. For the same compound, in data set [3], the “CK-MB (IU/L)” value is listed as 20 ± 02 IU/L, the “LDH (IU/L)” value turned out to be 1485 ± 60 IU/L and the “troponin-I” value worked out at 128 ± 06 pg/mL.

For the compound `Cc1ccc(C2Nc3nnc(-c4cccnc4)n3C(N)=C2C#N)cc1` (centres unmarked) [Compound 8n, 5-Amino-7,8-dihydro-3-(pyridin-3-yl)-7-p-tolyl-[1,2,4]triazolo[4,3-a]pyrimidine-6-carbonitrile], at COX-2, the concentration for half-maximal inhibition (IC50) turned out to be 21.9 µM and the “SI (selectivity index)” value stood at 10.

With `COc1ccc(C2Nc3nnc(-c4cccnc4)n3C(N)=C2C#N)cc1` (centres unmarked) [Compound 8o, 5-Amino-7,8-dihydro-7-(4-methoxyphenyl)-3-(pyridin-3-yl)-[1,2,4] triazolo[4,3-a]pyrimidine-6-carbonitrile], in data set [1], the potency is listed as 3.5; the “% inhibition (number of writhing)” value was 47% and 47.50%; the “no. of writhes (mean ± SE)” value came to 15.00 ± 0.50. Besides, in data set [2], the “% of edema inhibition 1 h” value is reported as 37%, the “% of edema inhibition 3 h” value was determined as 61% and the “% of edema inhibition 5 h” value is 73%. Further, in the data set with rat stomach, the “score: no. of gastric ulcers” value came out at 0, the “score: severity lesions” value amounted to 0 and the “ulceration in the isolated rat stomach (observation)” value is reported as “no ulceration”. For the same compound, on sEH, the IC50 was 2.1 ± 0.07 nM. The 50% inhibitory concentration (IC50) in the data set on 5-LOX is 3.05 µM. In data set [3], the “CK-MB (IU/L)” value is recorded as 17 ± 01 IU/L, the “LDH (IU/L)” value was 1390 ± 50 IU/L and the “troponin-I” value is listed as 107 ± 05 pg/mL.

In the case of `O=c1c(O)c(-c2ccc(O)c(O)c2)oc2cc(O)cc(O)c12` [Quercetin, reference compound], the half-inhibitory concentration (IC50) with 5-LOX worked out at […].

Consider `CC(C)Cc1ccc(C(C)C(=O)O)cc1` (centres unmarked) [ibuprofen], for which the ulcer index in data set [4] is 21.26.

As to `COc1ccc2c(c1)c(CC(=O)O)c(C)n2C(=O)c1ccc(Cl)cc1` [indomethacin], in the data set with rat stomach, the “score: no. of gastric ulcers” value is 8.5 ± 0.40 and the “score: severity lesions” value came out at 12.50 ± 0.70.

The values are drawn from paper PMC11307993 (ACS Omega, 2024).
